Data on six compounds can be found in patent US10550125B2, “Prodrugs of imidazotriazine compounds as CK2 inhibitors” (BRISTOL-MYERS SQUIBB COMPANY, priority 2015, dated 2020).

For series [1], the system named is pCK2 motif. The series is described as follows: In vivo pharmacodynamic study, pCK2 motif inhibition in SNU-C1 (colon) xenograft tumor model. More on the design: species or system mice. To be noted: for % inh. of p-CK2 at 24th hour: oral gavage, SNU-C1 (colon) xenograft in mice. The protocol: pCK2 motif is a putative cellular substrate of CK2 with molecular weight of ˜60 kDa.
To determine extent of pCK2 motif inhibition by test compounds in vivo, SNU-C1 colon tumor cells were inoculated into female BALB/c athymic mice and propagated as subcutaneous xenografts. The dosing solutions of the compound or control were administered to mice with tumors reaching ˜500 mm by oral gavage at the indicated dose levels and schedules. Tumors were collected from control and treated mice at the indicated times and immediately frozen in liquid nitrogen. Frozen tumors were thawed on ice in 5 volumes of TTG buffer (Tris-HCl, pH 7.9, 10% glycerol, 0.02% Tween-20). Tumors were homogenized using a Qiagen TissueLyser II (3×1 min (1/30S)) in Qiagen Tissulyser tubes containing steel beads. Tumor homogenates were clarified by microcentrifugation at 13000 rpm for 10 min. Western blot analysis was performed using 60 μg of protein per lane on 4-15% BioRad SDS-PAGE gels. Blots were probed with an anti-pCK2 motif antibody (mAb #8738 Cell Signaling Technology) and anti-Actin antibody. The pCK2 motif antibody is a purified […] antibody developed by immunizing mice with a degenerate mixture of peptides corresponding to the consesnus phorylation site used by CK2. The intensity of the pCK2 motif band was measured on images obtained from the Licor Odyssey instrument. % pCK2 remaining at each dose was calculated relative to the average intensity of bands from untreated, control mouse tumors.

Series [2] is described as follows: Single-dose pharmacokinetics in rats (oral bioavailability). The format is in vivo. To be noted: for Oral Bioavailability in Rats, % F: male Sprague-Dawley rats, ratio of dose-normalized AUC, oral vs IV; for Prodrug bioavailability in Rats, % F: dose-normalized AUC of parent (Example 1) after oral prodrug vs IV infusion of parent. As for the experimental part: In a study to determine oral bioavailability in male Sprague-Dawley rats, two groups of animals (N=3 per group, 300 to 350 g) are used. One group (non-fasted) receives the compound by IV infusion (over 10 minutes) via a jugular vein and one group (fasted) receives drug by oral gavage. Serial blood samples (˜0.3 mL) are collected from the jugular vein into tri-potassium ethylenediaminetetraacetic acid (K3EDTA)-containing tubes at 0.167 (for IV), 0.25, 0.5, 1, 3, 5, 7, and 24 hours, post dose and then centrifuged at 4° C. (1500 to 2000×g) to obtain plasma, which is stored at −20° C. until analysis by LC-MS/MS.
The pharmacokinetic parameters were obtained by non-compartmental analysis of plasma concentration (determined by LC/MS/MS) vs. time data (ThermoKinetica Software version 4.4.1). The peak concentration (Cmax) and time for Cmax, Tmax, were recorded directly from experimental observations. The area under the curve from time zero to the last sampling time (AUC0-t) was calculated using a combination of linear and log trapezoidal summations. The total plasma clearance (CLTp), steady-state volume of distribution (Vss), apparent elimination half-life (t½) and mean residence time (MRT) were estimated after IV administration. Estimation of T½ was made using a minimum of 3 time points with quantifiable concentrations.
For non-prodrugs, the absolute oral bioavailability F was estimated as the ratio of dose-normalized AUC values following oral and IV doses.
In case of prodrugs (e.g., Examples 2 and 5), absolute bioavailability F was estimated as the ratio of dose-normalized AUC values of parent (Example 1) upon oral administration of prodrugs (Examples 2 and 5) and IV infusion of parent (Example 1).

Series [3] has as its target CK2A1 (Homo sapiens (Human), UniProt P68400). Nature of the series: CK2 kinase assay (CK2A1). The series is classed as biochemical. To be noted: recombinant CK2A1. The protocol: (§1) The effectiveness of compounds of the present invention as inhibitors of protein kinases can be readily tested by assays known to those skilled in the art. For example, in vitro protein kinase assays may be conducted with a relevant purified protein kinase and an appropriate synthetic substrate to determine the inhibitory activity of the compounds. […] Reaction mixtures were incubated at 30° C. for 1 hour, and reaction products were captured by binding to phosphocellulose (P81) filter plates. Incorporation of radioactive phosphate into the peptide substrate was determined by liquid scintillation counting. The potency of compounds in inhibiting CK2 is expressed as IC50, defined as the concentrations of compounds required to inhibit the enzymatic activity by 50%.
(§2) The inhibitory activity of the instant compounds may also be measured by recombinant CK2 holoenzyme kinase assays. The assays were performed in U-bottom 384-well plates. The final assay volume was 30 μl prepared from 15 μl additions of enzyme and substrates (fluoresceinated peptide FL-RRRADDSDDDDD-NH2 and ATP) and test compounds in assay buffer (20 mM HEPES pH 7.4, 10 mM MgCl2, 100 mM NaCl, 0.015% Brij35 and 0.25 mM DTT). The reaction was initiated by the combination of bacterially expressed, CK2 α/β or CK2 α′/β holoenzyme with substrates and test compounds. The reaction was incubated at room temperature for 60 minutes and terminated by adding 30 μl of 35 mM EDTA to each sample. The reaction mixture was analyzed on the Caliper LABCHIP® 3000 (Caliper, Hopkinton, Mass.) by electrophoretic separation of the fluorescent substrate and phosphorylated product. Inhibition data were calculated by comparison to no enzyme control reactions for 100% inhibition and vehicle-only reactions for 0% inhibition. The final concentration of reagents in the CK2 α/β assay was 25 μM ATP, 1.5 μM FL-RRRADDSDDDDD-NH2, 50 pM CK2 α/β holoenzyme, and 1.6% DMSO. The final concentration of reagents in the CK2 α′/β assay was 10 μM ATP, 1.5 μM FL-RRRADDSDDDDD-NH2, 100 pM CK2 α′/β holoenzyme, and 1.6% DMSO. Dose response curves were generated to determine the concentration required inhibiting 50% of kinase activity (IC50). Compounds were dissolved at 10 mM in dimethylsulfoxide (DMSO) and evaluated at eleven concentrations. IC50 values were derived by non-linear regression analysis.

The nature of series [4]: Thermodynamic equilibrium aqueous solubility assay. The format is physicochemical. To be noted: for solubility at 24 h: aqueous buffer, thermodynamic from solid. As for the experimental part:
Standards Preparation: The calibration standard was prepared by accurately weighing 0.5-0.7 mg of sample in 5 ml of methanol. If the material was not fully soluble in methanol, other solvents such as DMSO or mixed solvents were used.
The solution was sonicated and vortexed for ˜30 seconds. The vials were shaken at 300 rpm at room temperature for 24 hrs. The exact incubation time for a specific prodrug was based on the prior aqueous stability data. If the compound was stable in the buffer up to 24 hrs, then the solubility was measured after 24 hrs, otherwise kinetic solubility data was reported. The final saturated solution was then transferred to a 1.5 mL eppendorf tube and centrifuged for ˜2 min. at 10000 rpms. The supernatant from the saturated solution was transferred to a glass HPLC vial and the solubility was analyzed by HPLC using a four point calibration curve.

Series [5] addresses CK2A2 (Homo sapiens (Human), UniProt P19784). The series is described as follows: CK2 kinase assay (CK2A2). The series is classed as biochemical. The following applies: recombinant CK2A2. As for the experimental part: as §1, §2
Setting [6] is: 50 mM potassium phosphate buffer, pH 6.5, 50 mM potassium phosphate, read-out: Solubility pH 6.5.
[7] abbreviates: simulated gastric fluid, pH 1.0, read-out: Solubility pH 1.0.
Setting [8] is: 50 mM sodium acetate buffer, pH 4.0, 50 mM sodium acetate, read-out: Solubility pH 4.0.

Each structure is given as a SMILES string. ≈ marks a conversion by molar mass, not a printed value. Like-named read-outs stand apart in the source and are kept apart here. A value given as a limit tells only on which side of the number the result lay.

Sequence of CK2A2 (P19784 whole entry): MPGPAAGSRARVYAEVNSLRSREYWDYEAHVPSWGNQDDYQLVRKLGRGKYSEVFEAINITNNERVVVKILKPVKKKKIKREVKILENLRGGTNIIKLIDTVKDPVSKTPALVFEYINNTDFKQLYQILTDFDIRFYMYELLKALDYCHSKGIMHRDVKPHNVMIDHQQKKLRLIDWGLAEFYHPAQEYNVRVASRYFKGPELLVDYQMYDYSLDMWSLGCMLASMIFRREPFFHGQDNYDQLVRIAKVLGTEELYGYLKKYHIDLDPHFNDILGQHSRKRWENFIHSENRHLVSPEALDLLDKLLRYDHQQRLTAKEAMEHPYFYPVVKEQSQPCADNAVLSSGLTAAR
Sequence of CK2A1 (P68400 whole entry): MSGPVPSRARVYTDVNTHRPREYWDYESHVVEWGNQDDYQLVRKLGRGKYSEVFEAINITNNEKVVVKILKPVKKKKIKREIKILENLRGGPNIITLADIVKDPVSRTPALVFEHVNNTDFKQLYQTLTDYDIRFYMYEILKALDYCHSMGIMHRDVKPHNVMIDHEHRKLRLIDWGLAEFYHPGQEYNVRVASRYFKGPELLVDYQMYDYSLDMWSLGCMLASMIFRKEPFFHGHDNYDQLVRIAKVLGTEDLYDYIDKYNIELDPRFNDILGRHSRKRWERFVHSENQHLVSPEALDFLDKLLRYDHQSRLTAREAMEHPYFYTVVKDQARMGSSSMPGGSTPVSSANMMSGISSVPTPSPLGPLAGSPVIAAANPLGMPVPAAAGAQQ

Take `COC(=O)N[C@H]1CCN(c2cc(C#N)cc(Nc3nc(NC4CC4)c4ncc(C#N)n4n3)c2Cl)C[C@@H]1O` [174 (WO2014011974), reference compound]: the “% inh. of p-CK2 at 24th hour” value in series [1] (40 mg/kg BID) turned out to be 33%/40 mg/kg BID. For the same compound, the “Oral Bioavailability in Rats, % F” value in series [2] was 8 % F.

What is called IC50 is the concentration at which inhibition is half-maximal. Usually solubility stands for the dissolved amount per volume that the medium holds. Take `CCNc1nc(Nc2cc(C#N)cc(N3CCN([C@@H](C)C(N)=O)CC3)c2Cl)nn2c(C#N)cnc12` [Example 1, (S)-2-(4-(2-chloro-5-cyano-3-((7-cyano-4-(ethylamino)imidazo[2,1-f][1,2,4]triazin-2-yl)amino)phenyl)piperazin-1-yl)propanamide]: the IC50 in series [3] and in series [5] was under 0.01 µM in each case. Moreover, the “% inh. of p-CK2 at 24th hour” value in series [1] (15 mg/kg BID) stood at 91%/15 mg/kg BID. Further, the “suppression of pCK2 motif levels relative to vehicle control (in words)” value in series [1] (SNU-C1 xenograft in mice, up to 24 hours) is recorded as “significantly suppressed”. For the same compound, the solubility at 24 h in series [4] (setting [6]) was under 1 µg/mL; in series [4] (setting [7]), 22 µg/mL (≈ 44.5 µM). The “Oral Bioavailability in Rats, % F” value in series [2] was found to be 68 % F. Further, the “bioavailability in rats compared to Example 174 of WO2014011974 (in words)” value in series [2] (rats, oral) is “marked improvement in bioavailability”.

In the case of `CCNc1nc(N(C(=O)OCOC(=O)Cc2ccc(OP(=O)(O)O)cc2)c2cc(C#N)cc(N3CCN([C@@H](C)C(N)=O)CC3)c2Cl)nn2c(C#N)cnc12` [Example 2, (S)-(((3-(4-(1-amino-1-oxopropan-2-yl)piperazin-1-yl)-2-chloro-5-cyanophenyl)(7-cyano-4-(ethylamino)imidazo[2,1-f][1,2,4]triazin-2-yl)carbamoyl)oxy)methyl 2-(4-(phosphonooxy)phenyl)acetate], the half-inhibitory concentration (IC50) in series [3] lay in the range of 0.1 to 1 µM; in series [5], 0.01 to 0.1 µM. In series [4], the “solubility compared to the parent compound Example 1 (in words)” value is given as “superior solubility”. Moreover, the solubility at 24 h in series [4] (setting [6]) was 835 µg/mL (≈ 1070 µM); in series [4] (setting [8]), 124 µg/mL (≈ 159 µM); in series [4] (setting [7]), 242 µg/mL (≈ 309 µM). In addition, the “Prodrug bioavailability in Rats, % F” value in series [2] (rats) is given as 40 % F.

`CCNc1nc(N(C(=O)OCOC(=O)/C=C/C(=O)O)c2cc(C#N)cc(N3CCN([C@@H](C)C(N)=O)CC3)c2Cl)nn2c(C#N)cnc12` [Example 3, (S,E)-4-((((3-(4-(1-amino-1-oxopropan-2-yl)piperazin-1-yl)-2-chloro-5-cyanophenyl)(7-cyano-4-(ethylamino)imidazo[2,1-f][1,2,4]triazin-2-yl)carbamoyl)oxy)methoxy)-4-oxobut-2-enoic Acid]: the results for the IC50 in series [3] and in series [5] were 0.1 to 1 µM and 0.01 to 0.1 µM, respectively.

Take `CCNc1nc(N(C(=O)OCOC(=O)CC(C)(C)COP(=O)(O)O)c2cc(C#N)cc(N3CCN([C@@H](C)C(N)=O)CC3)c2Cl)nn2c(C#N)cnc12` [Example 4, (S)-(((3-(4-(1-amino-1-oxopropan-2-yl)piperazin-1-yl)-2-chloro-5-cyanophenyl)(7-cyano-4-(ethylamino)imidazo[2,1-f][1,2,4]triazin-2-yl)carbamoyl)oxy)methyl 3,3-dimethyl-4-(phosphonooxy)butanoate]: the IC50 was 0.01 to 0.1 µM in series [3] and under 0.01 µM in series [5].

`CCNc1nc(N(C(=O)OCOC(=O)CC(C)(C)c2c(C)cc(C)cc2OP(=O)(O)O)c2cc(C#N)cc(N3CCN([C@@H](C)C(N)=O)CC3)c2Cl)nn2c(C#N)cnc12` [Example 5, (S)-(((3-(4-(1-amino-1-oxopropan-2-yl)piperazin-1-yl)-2-chloro-5-cyanophenyl)(7-cyano-4-(ethylamino)imidazo[2,1-f][1,2,4]triazin-2-yl)carbamoyl)oxy)methyl 3-(2,4-dimethyl-6-(phosphonooxy)phenyl)-3-methylbutanoate]: the 50% inhibitory concentration (IC50) fell in the range of 0.1 to 1 µM in series [3] and 0.01 to 0.1 µM in series [5]. The “solubility compared to the parent compound Example 1 (in words)” value in series [4] is given as “superior solubility”. In addition, the solubility at 24 h in series [4] (setting [6]) was 1340 µg/mL (≈ 1580 µM); in series [4] (setting [8]), 160 µg/mL (≈ 188 µM); in series [4] (setting [7]) it was 253 µg/mL (≈ 297 µM). Moreover, the “Prodrug bioavailability in Rats, % F” value in series [2] (rats) came to 88 % F.
